Laboratory results published in US20090106858A1, “Isolation and Characterization of the Csb3-1 Mutant of Arabidopsis Thaliana and Use Thereof as a Regulator of Resistance in Plants to Diseases Caused by Biotrophic Pathogens” (priority 2005, published 2009).
Entries after “also recorded” stand apart in the source; their conditions may differ.

Key:
P69C-GUS [1] = details: wild Arabidopsis plants, local application (Jordá et al., 2000); cited from earlier work
[2] = system: PR-1 and GST6 marker genes; experiment: RT-PCR analysis of SA regulated marker genes PR-1 and GST6; format: in vivo, Arabidopsis thaliana; details: csb3-1 seedlings, 25 μM
Procedure: (§1) FIG. 8. Pharmacological complementation with phosmidomicine of the resistance increase in csb3-1 plants. • (A) Wild seedlings (wt) and csb3-1 seedlings of Arabidopsis were sprayed once at 48 hours and 24 hours before exposing them to Pst DC3000 with a buffer solution complemented with 25 μM or 50 μM dilution (+phosm) the controls were treated in a similar manner with buffer solution alone. The plants were exposed to Pst DC3000 and the pathogen's growth was recorded at days 0, 3 and 5 after inoculation (dpi). • (B) The effect of the phosmidomicine treatment (25 μM, treated as described in point (A) on the constitutive expression of P69C-GUS in csb3-1 seedlings (right) as compared with csb3-1 seedlings treated with the buffer solution alone (left). • (C) The effect of the phosmidomicine treatment (25 μM, treated as described in point (A) on the constitutive expression of SA regulated marker genes in csb3-1 seedlings of Arabidopsis as compared with csb3-1 seedlings treated with the buffer solution alone.
To analyze the level of genic expression by inverse transcriptase mediated PCR, the total RNA samples from leaf tissue were prepared using the Totally RNA kit made by Ambion (Austin, Tex.). Inverse transcription was done using the RT kit for PCR made by Clontech (Palo Alto, Calif.). […]

[3] = system: Pseudomonas syringae pv. tomato DC3000; experiment: Pst DC3000 bacterial growth in Arabidopsis seedlings sprayed with phosmidomicine before inoculation; format: in vivo, Arabidopsis thaliana
Text: An increase in substrate (MEcPP) accumulation of the CSB3/HDS enzyme or of any of the intermediate metabolic products that precede MEcPP accumulation in the MEP pathway (FIG. 6) could be responsible for the increased resistance of csb3-1 plants. Alternatively, a decrease of product synthesis (HMBPP) of the same enzyme could compromise the synthesis and accumulation of final products (IPP and DMAPP) (FIG. 6) that in turn could compromise the later biosynthesis of the different isoprenoids that must be derived from the MEP pathway. This last possibility can also be responsible for the resistance increase of the csb3-1 plants. In order to study any of these possibilities the impact of an inhibitor in the MEP pathway for increased resistance of csb3-1 plants to Pst DC3000 was studied. To approach the question in this manner phosmidomicine [3-(N-formil-N-hydroxyamino)-propylphosphonic acid] was used as well as a DXR competitive inhibitor, the enzyme that controls the second stage involved in the MEP pathway (FIG. 6) and reduces the levels of the final products obtained by this pathway (that is, IPP and DMAPP) (Schwender, J., Muller, C., Zeidler, J., and Lichtenthaler, H. K. (1999). Cloning and heterologous expression of a cDNA encoding 1-deoxy-D-xylulose-5 phosphate reductoisomerase of Arabidopsis thaliana. FEBS Lett. 455, 140-144; Laule, O., Furholz, A., Chang, H., Zhu, T., Wang, X., Heifetz, P. B., Gruissem, W., and Lange, M. (2003). Crosstalk between cytosolic and plastidial pathways of isoprenoid biosynthesis in Arabidopsis thaliana. Proc. Natl. Acad. Sci. USA 100, 6866-6871). In order to separate this response from the response derived from an arrest of the chloroplast development, phosmidomicine treatments were applied in much smaller dosages and during smaller periods of times than those used experimentally by others (Laule et al., 2003). Wild seedlings and csb3-1 seedlings were sprayed once with a 25 μM or a 50 μM dilution of phosmidomicine 48 hours and 24 hours before inoculation with Pst DC3000 and the subsequent bacterial growth was recorded in inoculated plants at 0.3 and 5 d.p.i. Treated plants were also studied to determine the effect on the normal expression of the P69C-GUS gene. […] Greater dosages of this inhibitor were not tested, since they could have a collateral developmental and/or homeostatic effect in the chloroplast that could lead to undesired side effects.
FIG. 8. […] The plants were exposed to Pst DC3000 and the pathogen's growth was recorded at days 0, 3 and 5 after inoculation (dpi). • (B) The effect of the phosmidomicine treatment (25 μM, treated as described in point (A) on the constitutive expression of P69C-GUS in csb3-1 seedlings (right) as compared with csb3-1 seedlings treated with the buffer solution alone (left). • (C) The effect of the phosmidomicine treatment (25 μM, treated as described in point (A) on the constitutive expression of SA regulated marker genes in csb3-1 seedlings of Arabidopsis as compared with csb3-1 seedlings treated with the buffer solution alone.
Pseudomonas syringae pv. tomato DC3000 was grown and was then prepared to be inoculated as previously described (Mayda et al., 2000). […] A high throughput method for quantifying growth of phytopathogenic bacteria in Arabidopsis thaliana. […]

P69C-GUS [4] = experiment: Histochemical GUS staining of P69C-GUS indicator gene expression; format: in vivo, Arabidopsis thaliana; details: csb3-1 seedlings, 25 μM
Procedure: as §1
The mutant line csb3-1 used in these experiments had been subjected to backcrossing at least four times with the original wild line. Plants were made to grow in a growth chamber (19-23° C., fluorescent light at 100 μEm^−2 seg^−1) in a cycle of 10 hours of light to 14 hours of darkness. […]

Row | Structure (SMILES) | expression of P69C-GUS after local application (P69C-GUS [1]) | effect on constitutive expression of PR-1 and GST6 marker genes [2] | effect on increased resistance of csb3-1 plants to Pst DC3000 (bacterial growth) ([3]; csb3-1 plants, 5 μM treatments) | complementation of the resistance increase phenotype associated to csb3-1 ([3]; csb3-1 plants, summary statement) | effect on increased resistance of csb3-1 plants to Pst DC3000 (bacterial growth) ([3]; csb3-1 seedlings, one 50 μM treatment) | effect on increased resistance of csb3-1 plants to Pst DC3000 (bacterial growth) ([3]; csb3-1 seedlings, sprayed once with 25 μM 48 h and 24 h before inoculation) | effect on normal resistance of wild plants to Pst DC3000 (bacterial growth) ([3]; wild plants, 50 μM) | effect on constitutive expression of the P69C-GUS transgene (P69C-GUS [4])
1 | O=C(O)c1ccccc1O [SA, Salicylic acid] | induces the expression of the P69C-GUS |  |  |  |  |  |  | 
2 | O=CN(O)CCCP(=O)(O)O [phosmidomicine, 3-(N-formil-N-hydroxyamino)-propylphosphonic acid] |  | regulation by reduction of the constitutive expression | provoked a reduction in the increased resistance of the csb3-1 plants that was only observed 5 days after inoculation | complement completely the resistance increase phenotype associated to csb3-1 | completely suppressed the resistance increase attributed to the csb3-1 mutation | noticeably reduce resistance increase to Pst DC3000 | made the plants more susceptible to this virulent pathogen; also recorded: resulted in greater rates of bacterial growth | regulation by reduction of the constitutive expression of the P69G-GUS transgene
